In US7714146B2, “Azulene-oxindole compounds as multiple-kinase inhibitors and useful as anticancer agents” (Industrial Technology Research Institute, priority 2006, dated 2010):

Assays:
Type in all cases: biochemical
[1] = biological target: T1, human c-KIT (Thr544-Val976) (Homo sapiens, UniProt P10721); test: c-KIT kinase assay (HTScan kit, DELFIA); conditions: for inhibition at 0.1 µM: compound at 0.1 μM, read-out: c-KIT 0.1 μM, % of inhibition relative to control; for inhibition at 1 µM: compound at 1 μM, read-out: c-KIT 1 μM, % of inhibition relative to control
T1 construct: human c-KIT (Thr544-Val976); GST (N); purchased Cell Signaling Technology; host or cells: baculovirus expression system
Description: (§1) Compounds 1-100 were treated for their efficacy in inhibiting activities of FLT-3, c-KIT, KDR/Flk-1, PDGFR-beta, EGFR, and PKC kinases by biochemical DELFIA (Dissociation Enhanced Lanthanide FIA) assays according to the procedure described below. The assays were conducted by, Division of Cell Engineering, Biomedical Engineering Research Laboratories, Industrial Technology Research Institute, Bldg. 53, 195, sec. 4, Chung Hsing Rd. Chutung, Hsinchu, Taiwan 310, R.O.C.
(§2) The c-KIT assay was conducted following the protocol described in Protocol for HTScan® c-KIT Kinase Assay Kit (Cell Signaling Technology®). The assay was conducted under the following conditions: c-KIT source: The GST-c-KIT fusion protein was produced using a baculovirus expression system with a construct expressing human c-KIT (Thr544-Val976) with an amino-terminal GST tag, substrate: 1.5 μM This biotinylated peptide contains the residues surrounding Tyr-996 of KDR, vehicle: 1% DMSO, pre-incubation time/temperature: 5 minutes at room temperature, incubation time/temperature: 30 minutes at room temperature, incubation buffer: 60 mM HEPES pH 7.5, 5 mM MgCl2, 5 mM MnCl2, 3 μM Na3VO4, 1.25 mM DTT, 20 μM ATP, and quantitative method: DELFIA® Assay.

[2] = biological target: T2, human FLT-3 (Arg571-Ser993) (Homo sapiens, UniProt P36888); test: FLT-3 kinase assay (HTScan kit, DELFIA); conditions: for inhibition at 0.1 µM: compound at 0.1 μM, read-out: FLT-3 0.1 μM, % of inhibition relative to control; for inhibition at 1 µM: compound at 1 μM, read-out: FLT-3 1 μM, % of inhibition relative to control
T2 construct: human FLT-3 (Arg571-Ser993); GST (N); purchased Cell Signaling Technology; host or cells: baculovirus expression system
T2 sequence (P36888 571-993): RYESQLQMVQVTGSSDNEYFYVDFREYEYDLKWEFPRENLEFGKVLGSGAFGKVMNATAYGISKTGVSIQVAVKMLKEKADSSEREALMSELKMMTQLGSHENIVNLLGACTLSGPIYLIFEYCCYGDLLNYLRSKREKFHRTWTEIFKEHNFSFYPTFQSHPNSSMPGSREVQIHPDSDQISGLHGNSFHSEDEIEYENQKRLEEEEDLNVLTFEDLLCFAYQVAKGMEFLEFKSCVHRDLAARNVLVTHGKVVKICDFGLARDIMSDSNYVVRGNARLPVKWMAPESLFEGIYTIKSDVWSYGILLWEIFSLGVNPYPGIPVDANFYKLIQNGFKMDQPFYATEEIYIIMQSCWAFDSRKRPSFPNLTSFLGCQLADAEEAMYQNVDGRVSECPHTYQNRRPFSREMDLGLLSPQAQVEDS
Description: as §1
as §2, with “FLT-3” for “c-KIT”, “GST-kinase” for “GST-c-KIT”, “FLT-3 (Arg571-Ser993) (GenBank accession No. NM_004119)” for “c-KIT (Thr544-Val976)”, “Gastrin Precursor Biotinylated Peptide (with Tyr87 as phosphorylation site),” for “This biotinylated peptide contains the residues surrounding Tyr-996 of KDR,”

[3] = biological target: T3, human VEGFR-2 (Val789-Val1356) (Homo sapiens, UniProt P35968); test: KDR kinase assay (HTScan VEGFR-2 kit, DELFIA); conditions: for inhibition at 0.1 µM: compound at 0.1 μM, read-out: KDR 0.1 μM, % of inhibition relative to control; for inhibition at 1 µM: compound at 1 μM, read-out: KDR 1 μM, % of inhibition relative to control
T3 construct: human VEGFR-2 (Val789-Val1356); GST (N); purchased Cell Signaling Technology; host or cells: baculovirus expression system
Description: as §1
as §2, with “The KDR” for “The c-KIT”, “HTScan® VEGFR-2” for “HTScan® c-KIT”, “conditions: KDR” for “conditions: c-KIT”, “The GST-Kinase” for “The GST-c-KIT”, “human VEGFR-2 (Val789-Val1356) (GenBank Accession No. NM_002253)” for “human c-KIT (Thr544-Val976)”, “μM Gastrin Precursor Biotinylated Peptide (with Tyr87 as phosphorylation site),” for “μM This biotinylated peptide contains the residues surrounding Tyr-996 of KDR,”

T3 sequence (P35968 789-1356): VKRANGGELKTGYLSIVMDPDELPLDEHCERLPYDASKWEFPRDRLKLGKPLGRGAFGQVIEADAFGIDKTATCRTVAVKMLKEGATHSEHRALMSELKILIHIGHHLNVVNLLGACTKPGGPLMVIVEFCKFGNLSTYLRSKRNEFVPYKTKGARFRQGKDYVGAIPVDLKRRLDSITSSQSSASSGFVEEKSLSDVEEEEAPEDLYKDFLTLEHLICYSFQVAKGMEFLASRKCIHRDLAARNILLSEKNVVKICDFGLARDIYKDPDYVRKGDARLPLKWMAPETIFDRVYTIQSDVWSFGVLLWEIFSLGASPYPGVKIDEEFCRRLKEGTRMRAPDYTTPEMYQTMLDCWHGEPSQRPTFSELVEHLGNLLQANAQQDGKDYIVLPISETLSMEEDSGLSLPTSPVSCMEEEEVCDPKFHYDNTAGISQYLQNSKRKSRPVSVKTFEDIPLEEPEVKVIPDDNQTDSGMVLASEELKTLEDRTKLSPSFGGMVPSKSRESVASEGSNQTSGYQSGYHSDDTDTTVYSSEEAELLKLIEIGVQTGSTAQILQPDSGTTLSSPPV
T1 sequence (P10721 544-976): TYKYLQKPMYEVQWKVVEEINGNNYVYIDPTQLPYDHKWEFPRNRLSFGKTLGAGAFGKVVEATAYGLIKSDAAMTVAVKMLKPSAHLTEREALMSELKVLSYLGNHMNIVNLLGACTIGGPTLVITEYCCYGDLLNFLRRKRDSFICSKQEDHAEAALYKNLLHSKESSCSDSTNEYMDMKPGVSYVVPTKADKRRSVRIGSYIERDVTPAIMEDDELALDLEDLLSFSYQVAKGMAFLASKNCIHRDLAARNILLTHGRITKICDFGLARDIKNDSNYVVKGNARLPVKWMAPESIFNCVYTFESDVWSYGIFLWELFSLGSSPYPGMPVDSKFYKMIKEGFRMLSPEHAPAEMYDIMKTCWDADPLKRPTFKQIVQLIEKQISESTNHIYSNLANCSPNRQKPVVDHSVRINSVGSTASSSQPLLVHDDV

inhibition at 0.1 µM [1] | inhibition at 1 µM [1] | IC50 ([1]; read-out: c-KIT kinase inhibition (IC50)) | inhibition at 0.1 µM [2] | inhibition at 1 µM [2] | IC50 ([2]; read-out: FLT-3 kinase inhibition (IC50)) | inhibition at 0.1 µM [3] | inhibition at 1 µM [3] | Structure (SMILES)
71% | 71% | 17.8 nM | 56.9% | 85.7% | 4.8 nM | 1.9% | 11.5% | Cc1cc(C=C2C(=O)Nc3ccc(F)cc32)c2ccccc(OCCCN3CCOCC3)c1-2 (mixture of isomers) [Compound 87, 5-Fluoro-3-[3-methyl-4-(3-morpholin-4-yl-propoxy)-azulen-1-ylmethylene]-1,3-dihydro-indol-2-one]
26.9% | 26.9% |  | 7.3% | 34.6% |  | 9.5% | 15.6% | COc1ccc2c(c1)NC(=O)/C2=C/c1ccc2cccccc1-2 [Compound 30, 3-Azulen-1-ylmethylene-6-methoxy-1,3-dihydro-indol-2-one]
20.2% | 20.2% |  | 14.1% | 44.2% |  | 12.6% | 9.1% | O=C1Nc2ccc(F)cc2/C1=C\c1ccccc2cccc1-2 [Compound 52, 3-Azulen-4-ylmethylene-5-fluoro-1,3-dihydro-indol-2-one]
39.8% | 39.8% |  | 30.6% | 52.7% |  | 16.3% | 20.1% | O=C1Nc2ccc(F)cc2/C1=C\c1ccc2cccc-2cc1 [Compound 53, 3-Azulen-6-ylmethylene-5-fluoro-1,3-dihydro-indol-2-one]
27.5% | 27.5% |  | 33.3% | 52.5% |  | 17% | 25.7% | Cc1ccc2c(c1)/C(=C\c1c3cccccc-3nc1N)C(=O)N2 [Compound 54, 3-(2-Amino-cyclohepta[b]pyrrol-3-ylmethylene)-5-methyl-1,3-dihydro-indol-2-one]
34.8% | 34.8% |  | 12.6% | 53% |  | 35.4% | 34.2% | O=C1Nc2ccc(F)cc2/C1=C\c1cc2cccccc-2c1F [Compound 56, 5-Fluoro-3-(1-fluoro-azulen-2-ylmethylene)-1,3-dihydro-indol-2-one]
 |  |  | 17.2% |  |  | 32.9% | 42.5% | COC(=O)C1C2=CC=CC=C(OC)C2=C(/C=C2\C(=O)Nc3ccc(F)cc32)C1OC (stereo not drawn) [Compound 69, 3-(5-Fluoro-2-oxo-1,2-dihydro-indol-3-ylidenemethyl)-2,4-dimethoxy-1,2-dihydro-azulene-1-carboxylic acid methyl ester]
 |  |  | 33.9% | 32.8% |  | 40.4% | 52.4% | COc1ccc(CN2C(=O)/C(=C/c3cc(C)c4cc(C(C)C)ccc(C)c3-4)c3ccccc32)cc1 [Compound 73, 3-(5-Isopropyl-3,8-dimethyl-azulen-1-ylmethylene)-1-(4-methoxy-benzyl)-1,3-dihydro-indol-2-one]
 |  |  | 45.8% | 69.4% |  | 5.1% | 70.9% | Cc1cc(/C=C2/C(=O)N(Cc3ccc(C#N)cc3)c3ccccc32)c2c(C)ccc(C(C)C)cc1-2 [Compound 74, 4-[3-(5-Isopropyl-3,8-dimethyl-azulen-1-ylmethylene)-2-oxo-2,3-dihydro-indol-1-ylmethyl]-benzonitrile]
28.2% | 28.2% |  |  |  |  |  |  | COC(=O)c1cc(/C=C2\C(=O)Nc3ccc(F)cc32)c2cccccc1-2 [Compound 76, 3-(5-Fluoro-2-oxo-1,2-dihydro-indol-3-ylidenemethyl)-azulene-1-carboxylic acid methyl ester]
23.4% | 23.4% |  |  |  |  |  |  | Cc1cc(C=C2C(=O)Nc3ccc(S(=O)(=O)Nc4ccccn4)cc32)c2cccccc1-2 [Compound 77]

Continued, compound first:

Structure (SMILES) | inhibition at 0.1 µM [1] | inhibition at 1 µM [1] | IC50 ([1]; read-out: c-KIT kinase inhibition (IC50)) | inhibition at 0.1 µM [2] | inhibition at 1 µM [2] | IC50 ([2]; read-out: FLT-3 kinase inhibition (IC50)) | inhibition at 0.1 µM [3] | inhibition at 1 µM [3]
O=C1/C(=C\c2ccc3cccccc2-3)c2ccccc2N1C(c1ccccc1)c1ccccc1 [Compound 4, 3-Azulen-1-ylmethylene-1-benzhydryl-1,3-dihydro-indol-2-one] |  |  |  |  | 14.7% |  |  | 
Cc1cc(/C=C2/C(=O)N(Cc3ccccc3)c3ccccc32)c2c(C)ccc(C(C)C)cc1-2 [Compound 13, 1-Benzyl-3-(5-isopropyl-3,8-dimethyl-azulen-1-ylmethylene)-1,3-dihydro-indol-2-one] | 66.2% | 66.2% |  | 4.4% | 0.2% |  | 54.1% | 83.9%
Cc1cc(/C=C2/C(=O)N(C(c3ccccc3)c3ccccc3)c3ccccc32)c2c(C)ccc(C(C)C)cc1-2 [Compound 14, 1-Benzhydryl-3-(5-isopropyl-3,8-dimethyl-azulen-1-ylmethylene)-1,3-dihydro-indol-2-one] | 31.5% | 31.5% |  |  | 6% |  | 17.1% | 69.2%
O=C1Nc2ccccc2/C1=C\c1ccc2cccccc1-2 [Compound 19, 3-Azulen-1-ylmethylene-1,3-dihydro-indol-2-one] | 0.6% | 0.6% |  |  | 7.6% |  | 33.8% | 22.1%
O=C1Nc2ccc(Cl)cc2/C1=C/c1ccc2cccccc1-2 [Compound 23, 3-Azulen-1-ylmethylene-5-chloro-1,3-dihydro-indol-2-one] |  |  |  | 18.6% | 43.4% |  | 39.5% | 28.3%
O=C1Nc2ccc(F)cc2/C1=C\c1ccc2cccccc1-2 [Compound 25, 3-Azulen-1-ylmethylene-5-fluoro-1,3-dihydro-indol-2-one] | 75% | 75% |  | 26.2% | 58.8% |  | 7.7% | 45.7%
O=C1Nc2cc(Br)ccc2/C1=C\c1ccc2cccccc1-2 [Compound 28, 3-Azulen-1-ylmethylene-6-bromo-1,3-dihydro-indol-2-one] | 6.8% | 6.8% |  | 1.9% | 24.5% |  |  | 22.4%
O=C1Nc2cc(Br)ccc2/C1=C/c1ccc2cccccc1-2 [Compound 29, 3-Azulen-1-ylmethylene-6-bromo-1,3-dihydro-indol-2-one] | 46.1% | 46.1% |  |  | 53.3% |  | 18.5% | 48.2%
